Assay results published in PubChem BioAssay (NCI).
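96-well plates; 48 h exposure; 5 concentrations. Endpoints by linear interpolation between flanking doses. Not reached: highest tested concentration assigned. GI50 is the concentration that inhibits growth by half. TGI denotes the concentration required for complete inhibition of growth.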 Where a SMILES comes first, the peptide text is derived from it. [ ]: non-standard residue; d: D form. The star is where a group is joined. dTle = CC(C)(C)[C@@H](N)C(=O)O; 4Abz = Nc1ccc(C(=O)O)cc1; NHOH = ON*

Assays:
Experiment in all cases: NCI-60 cell line screen, 48 h
A498 renal = test system: A498 renal
MOLT-4 leukemia = test system: MOLT-4 leukemia
HT29 colon = test system: HT29 colon
SF-295 CNS = test system: SF-295 CNS
NCI-H522 lung = test system: NCI-H522 lung
OVCAR-5 ovarian = test system: OVCAR-5 ovarian
SNB-19 CNS = test system: SNB-19 CNS
UACC-62 melanoma = test system: UACC-62 melanoma
RXF 393 renal = test system: RXF 393 renal
K-562 leukemia = test system: K-562 leukemia

SMILES	GI50 (A498 renal) [µM]	TGI (A498 renal) [µM]	GI50 (MOLT-4 leukemia) [µM]	TGI (MOLT-4 leukemia) [µM]	GI50 (HT29 colon) [µM]	TGI (HT29 colon) [µM]	GI50 (SF-295 CNS) [µM]	TGI (SF-295 CNS) [µM]	GI50 (NCI-H522 lung) [µM]	TGI (NCI-H522 lung) [µM]	GI50 (OVCAR-5 ovarian) [µM]	TGI (OVCAR-5 ovarian) [µM]	GI50 (SNB-19 CNS) [µM]	GI50 (UACC-62 melanoma) [µM]	TGI (UACC-62 melanoma) [µM]	GI50 (RXF 393 renal) [µM]	TGI (RXF 393 renal) [µM]	TGI (K-562 leukemia) [µM]	TGI (SNB-19 CNS) [µM]	GI50 (K-562 leukemia) [µM]
COc1ccc2c(c1)C(=O)/C(=C/c1ccc([N+](=O)[O-])o1)O2	1.64	4.12	1.67	3.97	0.954	2.74	2.35	9.89	0.527	1.05	1.8	3.64	3.09	1.36	2.91	1.39	3.05			
C/C(=N\NC(=S)SCc1ccccc1)c1ccccn1		8.73				15.6		9.26		2.79		9.71			4.69		3.03	2.95	18.3	
NS(=O)(=O)CC1CC[CH-]CC1.[Cl-].[Cl-].[Cl-].[Cl-].[Cl-].[Sb+5].c1ccncc1	> 100	> 100			> 100	> 100	> 100	> 100	> 100	> 100	> 100	> 100	> 100	> 100	> 100	> 100	> 100	> 100	> 100	> 100
CCCCCCCCCNC(=O)/C=C/c1ccc(O)c(O)c1	16.2	32.1	0.474	17.4	17.9	> 100	18.8	40.3	0.833	9.91	21.5	45.8	21.4	15.3	29	19.2	50.9		50.3	
CC(C)(C)c1ccc(OCCOCCOc2ccc(C(C)(C)C)cc2S(=O)(=O)Nc2ccc([N+](=O)[O-])cc2)c(S(=O)(=O)Nc2ccc([N+](=O)[O-])cc2)c1		90.9		43.9		> 100		> 100				> 100			> 100		> 100	> 100	> 100	
C=C1C(=O)O[C@H]2[C@H]1CC/C(COC(=O)C(C)c1ccc(CC(C)C)cc1)=C\CC[C@@]1(C)O[C@@H]21 (some centres not stated)			0.42	2.02	1.11	2.59	2.47	7.39	1.71	3.4	1.8	3.46	1.49	1.48	2.85	1.38	2.75	1.96	2.87	0.359
C[C@@H](NC(=O)[C@H](NC(=O)[C@@H]1CCCN1C(=O)CNC(=O)c1ccc(N)cc1)C(C)(C)C)C(=O)NO (H-[4Abz]GP[dTle][dA]-{NHOH})	> 100	> 100	> 100	> 100	> 100	> 100	> 100	> 100	> 100	> 100	> 100	> 100	> 100	> 100	> 100			> 100	> 100	> 100
O=C(CC(=O)c1cccc2ccccc12)C(=O)NC1C2CC3CC(C2)CC1C3 (configuration not stated)		> 100		> 100		> 100		> 100		> 100		> 100			> 100			> 100	> 100	
CCc1cc(CCC(=O)Nc2ccccc2[N+](=O)[O-])[nH]c(=S)n1				> 100		> 100		> 100				> 100			> 100		> 100	> 100	> 100	
COc1ccc2c3c(c(C(=O)c4ccccc4)oc13)CCC2		> 100		> 100		> 100		> 100							> 100		31.3	> 100	> 100	
Cc1cc2c(C(N)=O)c(N)n(-c3c(C)ccc(O)c3C)c2nc1C	7.5	24.3	2.86	> 100	0.585	> 100	0.871	35.4	1.48	5.09	3.1	51.9	8.28			0.12	0.855	> 100	> 100	2
Nc1ccc(-c2cccs2)cc1NC(=O)c1ccc(CCCC(=O)Nc2ccc(C3CC3N)cc2)cc1 (configuration not stated)	20.4	92												1.28	5.47	2.45	30			
N#Cc1cc(S(=O)(=O)Nc2nnc(-c3ccccc3)c(-c3ccccc3)n2)c(SCc2ccccc2)cc1Cl	23.5	45.2	9.82	> 100			24.8	46.5	44.5	> 100			35.1	20.5	48.7	6.31	22.7	> 100	> 100	27.2
CC(=O)c1c(CO[N+](=O)[O-])n([O-])c2ccccc2[n+]1=O				> 100		> 100		> 100		> 100		> 100			> 100			> 100	> 100	
CC(=O)O[C@@]1(C)[C@@H](C)C(=O)O[C@@H]2CCN3CC=C(COC(=O)[C@]1(C)O)[C@H]23				> 100		> 100				> 100		> 100			> 100			> 100	> 100	
CSc1snc2sc3c(Cl)nnnc3c12		28.7		11.4		19.6		32				31			29.2		25.1	5.73	30.1	
O=C(O/N=C1/CCC/C1=C\c1ccccc1)c1ccc(Cl)c(Cl)c1		> 100		> 100		> 100		> 100		> 100		> 100			> 100		> 100	> 100		
CC(C(N)C(=O)NC(C(=O)O)C1OC(n2ccc(=O)[nH]c2=O)C(O)C1O)C(O)c1ccc(O)cn1 (configuration not stated)				> 100		> 100		> 100		> 100		> 100			> 100				> 100	

SMILES	GI50 (A498 renal) [µM]	TGI (A498 renal) [µM]	GI50 (MOLT-4 leukemia) [µM]	TGI (MOLT-4 leukemia) [µM]	GI50 (HT29 colon) [µM]	TGI (HT29 colon) [µM]	GI50 (SF-295 CNS) [µM]	TGI (SF-295 CNS) [µM]	GI50 (NCI-H522 lung) [µM]	TGI (NCI-H522 lung) [µM]	GI50 (OVCAR-5 ovarian) [µM]	TGI (OVCAR-5 ovarian) [µM]	GI50 (SNB-19 CNS) [µM]	GI50 (UACC-62 melanoma) [µM]	TGI (UACC-62 melanoma) [µM]	GI50 (RXF 393 renal) [µM]	TGI (RXF 393 renal) [µM]	TGI (K-562 leukemia) [µM]	TGI (SNB-19 CNS) [µM]	GI50 (K-562 leukemia) [µM]
C=C1CC2CC(O)CC(C1)C2 (configuration not stated)		> 100		> 100		> 100		> 100		> 100		> 100			> 100		> 100		> 100	
O=C1C2C(C(=O)N1c1ccccc1)C1([N+](=O)[O-])C=C3c4ccccc4N(C(=O)c4ccccc4)C32C2C(=O)N(c3ccccc3)C(=O)C21 (configuration not stated)		> 100		> 100		> 100		> 100		> 100		> 100			> 100			> 100	> 100	
O=C(NO)[C@@H](Cc1ccccc1)NS(=O)(=O)c1ccc(-c2ccccc2)cc1	> 25	> 25	9.43	> 25	> 25	> 25	> 25	> 25	> 25	> 25	7.13	> 25	> 25	> 25	> 25			> 25	> 25	10.1
Nc1n[n+](-c2ccccc2)no1		> 100		> 100		> 100		> 100		> 100		> 100			89.6			> 100	> 100	
Cc1ccc(C(=O)/C(=C\c2ccc([N+](=O)[O-])cc2)S(=O)Cc2ccc(Cl)cc2)cc1 (configuration not stated)	2.61	7.63	1.2	6.14	1.88	4.3	1.8	4.28	1.72	3.18	1.97	3.91	1.83	1.65	3.22	1.65	3.1		3.68	
CC1(N)CCN(c2cnc(-c3cccc(Cl)c3Cl)c(N)n2)CC1	2.49	12	22.7	99.3	26.7	> 100	11.1	27.2	14.9	65.8	27.7	> 100	7.63	19.1	39.9				> 100	
NS(=O)(=O)NCCNc1nonc1C(=Nc1ccc(F)c(Br)c1)NO			30.8	> 100	66	> 100	27	> 100	36.2	97.5	69.4	> 100	48.2	25.9	> 100			> 100	> 100	35.4
CCOC(=O)c1cnc2c(ccc3ncccc32)c1NCCCN(CC)CC		> 100		72.2		> 100		> 100		> 100		> 100			> 100			> 100	> 100	
Oc1ccc(C2c3ccccc3Oc3ccccc32)c2cccnc12	1.74	64.4	1.96	> 100	1.1	> 100	0.499	> 100	2.57	> 100			1.85	1.88	8.07	1.68	7.1	> 100	> 100	1.37
O=C1c2ccccc2-c2c1c1c(O)cccc1n2Cc1ccccn1			91.4	> 100	88.6	> 100	23.6	> 100	> 100	> 100	58.5	> 100	> 100	20.5	> 100	45.7	> 100	79	> 100	18.3
CC1=C(O)/C(=C/C(C)CCC/C(C)=C/C=C/C(C)CCCc2ccoc2)OC1=O (configuration not stated)						> 100		81		> 100		69.3					> 100			
CN(CC(=O)Nc1nc2ccccc2[nH]1)S(=O)(=O)c1ccc(Cl)cc1	> 100	> 100	> 100	> 100	> 100	> 100			> 100	> 100	> 100	> 100	> 100	> 100	> 100	13.4	55.6	> 100	> 100	> 100
CCOC(=O)c1cc(-c2ccccc2)[nH]c1N/N=C/c1ccc(Cl)cc1			16.8	> 100	37.3	> 100	> 100	> 100	89.4	> 100	> 100	> 100	> 100	49.7	> 100	> 100	> 100	> 100	> 100	28.4
O=NNc1ccc(Sc2ccc(NN=O)cn2)nc1		> 100		> 100		> 100		> 100		> 100		> 100			> 100			> 100	> 100	
C/C(O)=C(\C#N)C(=O)Nc1ccc(C(F)(F)F)cc1	1.36	52.9	67.9	> 100	44.6	> 100					> 100	> 100	24.5	15.6	> 100	18.6	> 100	> 100	> 100	8.13
CO/N=C(\COc1ccc2oc(-c3ccccc3)cc(=O)c2c1)c1ccc(OC)cc1	23.7	66.3			19.7	48.6	21.7	48.9	17.8	37.4	24.6	82.7		27	84.7	29	97.5	> 100		27.3
CCOC(=O)c1cnc2sc3ccc4ccccc4c3n2c1=O				> 100		> 100		> 100				> 100			> 100		> 100	> 100	> 100	
